Experimental data from US20120164104A1, “Composition and Methods of Treating Viral Infections and Viral Induced Tumors” (Chimerix, Inc., priority 2009, published 2012).

Tests used:
Type in all cases: cell-based
BKV(Dunlop) = assay: BKV early and late protein expression in infected RPTECs (immunofluorescence, western blot); conditions: for LTag staining reduced / decrease of VP1 by western blotting: CMX001 0.31 μM
Method: For FIG. 1(b), indirect immunofluorescence of untreated and CMX001 treated BKV-infected RPTECs, methanol fixed 72 h pd. and stained with rabbit anti-agnoprotein serum (green) for visualization of the late agnoprotein and with the SV40 LTag monoclonal Pab416 for visualization og BKV LTag (red). Cell density is shown by Drac 5 staining in blue.
For FIG. 4(a), indirect immunofluorescence of untreated and CMX001 treated BKV-infected RPTECs, methanol fixed 48 and 72 h p.i. and stained with rabbit anti-agnoprotein serum (green) for visualization of the late agnoprotein and with the SV40 LTag monoclonal Pab416 for visualization of BKV LTag (red). For FIG. 4(b), cell extracts from CMX001-treated and untreated BKV-infected RPTECs were harvested 48 and 72 h p.i. and western blot performed with rabbit anti-BKV VP1, anti-agnoprotein serum and a monoclonal antibody directed against the housekeeping protein GAPDH.
Primary human renal proximal tubule epithelial cells (RPTECs), BKV(Dunlop) and all methods as previously described by Bernhoff et al (See Bernhoff et al., Cidofovir inhibits polyomavirus BK replication in human renal tubular cells downstream of viral early gene expression, Am J Transplant 8, 1413-1422 (2008).) Only one exception, quantitative PCR (qPCR) to quantify intracellular or extracellular BKV DNA load was performed with a different primer/probe set also targeting the LTag gene (See Hirsch, et al., J. Prospective study of polyomavirus type BK replication and nephropathy in renal-transplant recipients, N Engl J. Med., 347, 488-496 (2002)). Before each experiment, CMX001 was freshly dissolved to 1 mg/ml in methanol/water/ammonium hydroxide (50/50/2). It was further diluted in RPTEC growth medium.
To investigate expression of LTag at the single-cell level, immunofluorescence staining at 48 and 72 h p.i was performed. At 48 h p.i. the number of BKV positive cells was almost the same in CMX001 and untreated wells. At 72 h p.i., the CMX001 treated cells seemed to express less LTag pro cell (FIG. 4a).

BKV = assay: Stability of CMX001 stock solution, tested by antiviral effect on extracellular BKV load; conditions: diluted to 0.31 uM
Method: FIG. 7 illustrates the stability of CMX001. For FIG. 7, BKV-infected RPTECs were treated with freshly made CMX001 or CMX001 from a stock solution at 1 mg/ml stored for one week at 4° C. or −20° C. Supernatants were harvested 72 h p.i. and extracellular BKV load measured by qPCR. Data are presented as BKV load in percent of untreated cells set at 100%.
To examine the stability of CMX001 stock solution 1 mg/ml was put in 4 or −20° C. for one week then diluted to 0.31 uM and tested for its antiviral effect by measuring the extracellular BKV load in BKV-infected RPTEC 3 d p.i.

JCV Mad-4 [1] = assay: JCV VP1 late gene expression in COS-7 cells (immunofluorescence); conditions: 7 d.p.i.
Excerpt: FIG. 16 illustrates the effect of increasing concentrations of CMX001 on expression of JCV proteins. Indirect immunofluorescence of JCV-infected COS-7 cells treated with indicated concentrations of CMX001, fixed 7 d.p.i. and stained with rabbit anti-VP1 serum (red) for visualization of the late capsid protein VP1 and with Höchst 33342 dye to show DNA (blue). The merged pictures are shown in the right panel.
Cells were fixed with 4% p-formaldehyde (PFA) in phosphate-buffered saline, pH6.8 (PBS) at room temperature for 20 min and permeabilized with 0.2% Triton X-100 in PBS at room temperature for 10 min. After washing twice with PBS at room temperature for 5 min, PFA was quenched with 0.5 M NH4Cl in PBS at room temperature for 7 min followed washing twice with PBS at room temperature for 5 min. Blocking of unspecific binding sites was done with 3% milk in PBS at 37° C. for 15 min. Primary antibody (rabbit anti-VP1 1:300 in 3% milk PBS) was incubated at 37° C. for 45-60 min. Cells were washed twice with PBS on a shaker at room temperature for 5 min. Secondary antibody (chicken anti-rabbit Cy3 1:2000) and 5 μg/ml Höchst 33342 dye to stain DNA was given to the cells then incubated at 37° C. for 45-60 min. Cells were washed twice with PBS as before. Coverslips were mounted in NPropylgallat. […]

JCV Mad-4 [2] = assay: Extracellular JCV load in JCV-infected astrocyte cells (qPCR); conditions: in the presence of CMX001
Method: FIG. 17 illustrates the effect of increasing concentrations of CMX001 on extracellular viral load in astrocytes. Supernatants from JCV-infected PDA cells treated with indicated concentrations of CMX001 were harvested at indicated timepoints after infection and JCV load measured by qPCR. Data are presented as JCV load in log geq/ml. COS-7 or astrocyte cells were infected at a confluence of 60-70% with JCV(Mad-4) at an estimated TCID50 of 0.2. After 2 h incubation at 37° C., supernatants were replaced with fresh medium without or with increasing concentration CMX001. […] JCV loads were quantified after DNA extraction from 100 ul cell culture supernatants and the Corbett X-tractor Gene and the Corbett VX reagents (Qiagen, Hombrechtikon, Switzerland). The real-time PCR protocol for detection of JCV DNA samples targets the JCV large T coding sequence and has been described elsewhere (5). To examine the effect of CMX001 on JCV progeny levels over time, supernatants of treated and untreated cells were harvested at the indicated timepoints. To determine input virus samples were taken at 1 d.p.i. In the course of the infection for untreated cells, the extracellular JCV load changes approximately 1 log over the period of 7 days (3.22×107 vs 2.30×108 geq/ml).

CCCCCCCCCCCCCCCCOCCCOP(=O)(O)CO[C@H](CO)Cn1ccc(N)nc1=O [CMX001]
BKV-infected cells by immunofluorescence staining (BKV(Dunlop); 5 uM CMX001, 72 h p.i.): only few weakly LTag stained cells but no agnoprotein expressing cells were observed
BKV-infected cells by immunofluorescence staining (BKV(Dunlop); 10 uM CMX001, 72 h p.i.): no BKV-infected cell was observed
LTag staining reduced (BKV(Dunlop); 48 h p.i.): 33%
decrease of VP1 by western blotting (BKV(Dunlop); 48 h p.i.): 86%
LTag staining reduced (BKV(Dunlop); 72 h p.i.): 30%
decrease of VP1 by western blotting (BKV(Dunlop); 72 h p.i.): 63%
decrease in BKV agnoprotein expressing cells (BKV(Dunlop); CMX001 0.31 uM, immunofluorescence 72 h p.i.): approximately 60%
activity compared to the freshly prepared drug (BKV; stock 1 mg/ml stored one week at 4° C.): less than 60%
activity compared to the freshly prepared drug (BKV; stock 1 mg/ml stored one week at −20° C.): approximately 90%
JCV VP1 signal by immunofluorescence (JCV Mad-4 [1]; CMX001 1.25 μM): significant reduction
JCV VP1 positive cells by immunofluorescence (JCV Mad-4 [1]; CMX001 5 μM): essentially no VP1 positive cells could be observed
change in JCV load over 7 days (JCV Mad-4 [2]): less than 1 log
